The values below come from US20040235855A1, “Phospholipase C inhibitors for use in treating inflammatory disorders” (priority 2003, published 2004).

Each structure is given as a SMILES string. pIC50: −log10 of the molar value.

The target of the test is T1, human PLC-β2 (Homo sapiens, UniProt Q00722).
T1 construct: made in house; host or cells: Sf9 cells (Spodoptera frugiperda), recombinant baculovirus
T1 sequence (Q00722 whole entry): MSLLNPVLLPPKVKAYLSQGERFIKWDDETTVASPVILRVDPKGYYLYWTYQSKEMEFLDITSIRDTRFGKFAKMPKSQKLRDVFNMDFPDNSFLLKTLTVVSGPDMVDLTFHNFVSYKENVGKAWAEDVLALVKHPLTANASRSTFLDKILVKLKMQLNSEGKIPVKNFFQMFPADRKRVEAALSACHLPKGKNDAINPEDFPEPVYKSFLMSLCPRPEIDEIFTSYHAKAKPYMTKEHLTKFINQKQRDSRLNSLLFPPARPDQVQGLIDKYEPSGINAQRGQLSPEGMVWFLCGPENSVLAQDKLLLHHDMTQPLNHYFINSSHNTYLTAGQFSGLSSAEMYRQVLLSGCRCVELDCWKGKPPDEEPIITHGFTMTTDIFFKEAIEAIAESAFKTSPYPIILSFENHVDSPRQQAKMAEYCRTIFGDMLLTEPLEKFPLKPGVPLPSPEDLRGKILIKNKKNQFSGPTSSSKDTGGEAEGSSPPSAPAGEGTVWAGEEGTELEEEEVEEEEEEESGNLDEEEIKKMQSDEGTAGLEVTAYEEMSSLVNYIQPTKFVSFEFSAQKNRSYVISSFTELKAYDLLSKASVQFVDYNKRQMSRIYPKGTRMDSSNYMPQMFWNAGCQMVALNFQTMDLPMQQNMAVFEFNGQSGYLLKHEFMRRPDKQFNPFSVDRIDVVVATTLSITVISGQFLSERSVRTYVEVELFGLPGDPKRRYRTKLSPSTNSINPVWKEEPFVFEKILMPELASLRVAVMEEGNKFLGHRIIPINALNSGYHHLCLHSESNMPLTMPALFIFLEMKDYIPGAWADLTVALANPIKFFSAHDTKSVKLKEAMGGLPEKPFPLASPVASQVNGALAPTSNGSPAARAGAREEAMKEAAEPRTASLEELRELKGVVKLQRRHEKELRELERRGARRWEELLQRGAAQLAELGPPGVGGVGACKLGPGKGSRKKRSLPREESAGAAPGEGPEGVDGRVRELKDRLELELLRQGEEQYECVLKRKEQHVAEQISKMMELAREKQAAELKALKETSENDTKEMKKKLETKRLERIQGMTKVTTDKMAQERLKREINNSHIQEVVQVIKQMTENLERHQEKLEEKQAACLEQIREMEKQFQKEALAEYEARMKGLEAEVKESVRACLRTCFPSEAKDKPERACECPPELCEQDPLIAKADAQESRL
The test can be described thus: PLC assay using FlashPlates (96-well, immobilized [3H]PIP2 substrate). Format: biochemical. The conditions noted are these: purified recombinant human PLC-β2 or cytosolic human PLC-β2; hydrolysis of [3H]PIP2. From the text: The hydrolysis of phosphatidylinositol-4,5-bisphosphate (PIP2) by a specific phospholipase C-β2 (PLC-β2) produces two intracellular messengers, diacylglycerol (DAG) and inositol 1,4,5-trisphosphate (IP3), which mediate the activation of protein kinase C and intracellular Ca^2+ release. A conventional organic solvent extraction method is widely used for PLC assays to isolate IP3 from the substrate PIP2. The conventional PLC-β2 assay, however is terminated by addition of acidified organic solvents and subsequent extraction and phase separation. […] Accordingly, a preferred method to test the compounds of the present invention, was developed utilizing a 96-well plate assay for PLC-β2 using immobilized radiolabeled substrate to quantitatively measure the reduction in the substrate level without a need for organic solvent extraction. The automated PLC-β2 assay described herein provides a convenient method for quantitative measurement of phospholipase C activities in a high throughput fashion. Ninety-six well Phospholipid FlashPlates were coated with 0.2 mL of 50 mM Tris/HCl (pH 7.4), 0.01% Ac-BSA and 50,000 cpm of […] (phosphatidylinositol-4,5-bisphosphate) at 4° C. for 72 h. The wells were aspirated and washed twice with PBS. The reactions were conducted directly in the wells in PLC reaction buffer containing 50 mM Tris/HCl (pH 7.2), 2.75 mM EDTA (pH 7.3), 80 mM KCl, 10 mM LiCl, 0.04% DOC and 2 mM CaCl2 in the absence or presence of the purified recombinant human PLC-β2 (prepared as described hereafter) or cytosolic human PLC-β2 from […]. Reduction of radioactivity was monitored by a Packard TopCount instrument (Packard Instrument Company, Conn., USA). […] The cells were grown in Grace's media supplemented with 10% (v/v) fetal bovine serum, 3.3 g/l yeastolate, 3.3 g/l lactalbumin hydrosylate, glutamine (6.4 mM final), 50 μg/ml gentamicin, and 50 μg/ml kanamycin. Suspension of Sf9 cells (1.0×10^6 cells/ml) were infected with 5 pfu/cell of recombinant baculovirus encoding PLC-β2 and incubated at 27° C. for 72 h. The cells were collected by centrifugation (500×g, 7 min, 4° C.) and disrupted by hypotonic lysis buffer containing 20 mM Tris/HCl, pH 7.4, 5 mM MgCl2, 2 mM EGTA, 200 μM PMSF, 200 μM benzamidine and 1 μM pepstatin A. The lysate was sonicated on ice and the nuclei and unbroken cells removed by centrifigation (500×g, 5 min, 4C.). The supernatant was recovered and clarified by centrifugation (34,000 rpm, 60 min, 4C.). The supernatant was used as a crude cytosolic fraction (Paterson, A., Boyer, J. L., Watts, V. J., Morris, A. J., Price, […]. (1995) Concentration of enzyme-dependent activation of PLC β1 and PLC β2 by Gα11 and βγ subunits. Cellular Signalling 7, 709-720). Crude cytosol prepared from Sf9 cells expressing PLC-β2 was purified initially by chromatography on a 10 ml column of Q-Sepharose FF, equilibrated in buffer A (25 mM HEPES, pH 7.2,2 mM DTT, 2 mM EDTA, 2 mM EGTA, 200 μM PMSF, 200 μM benzamidine, 1 μM pepstatin A containing 10 mM NaCl). The column was washed with 20 ml of equilibration buffer and eluted with a 200-ml gradient of 110-410 mM NaCl in buffer A. The fractions containing PLC activity were pooled and diluted with buffer A. The diluted enzyme was applied to a 4 ml column of heparin-SepharoseCL-6B equilibrated in buffer A and the column washed with 70 ml of buffer A. The column was eluted with 80 ml of gradient of 0-1.0 M NaCl in buffer A, the column eluate collected in 3 ml fractions. […]
As usually defined, the pIC50 is −log10 of the IC50, conventionally taken in molar units. Consider `COc1ccccc1N1CCN(c2ccc(C(N)=O)cc2NC(=O)Nc2ccccc2)CC1` [Cpd 1, 4-[4-(2-methoxyphenyl)-1-piperazinyl]-3-[[(phenylamino)carbonyl]amino]-benzamide], for which the pIC50 is 4.63. In the case of `NC(=O)c1ccc(N2CCN(Cc3ccccc3)CC2)c(NC(=O)Nc2ccccc2)c1` [Cpd 2, 3-[[(phenylamino)carbonyl]amino]-4-[4-(phenylmethyl)-1-piperazinyl]-benzamide], the pIC50 was below 4.60.

For `NC(=O)c1ccc(N2CCN(C(c3ccc(F)cc3)c3ccc(F)cc3)CC2)c(NC(=O)Nc2ccccc2)c1` [Cpd 3, 4-[4-[bis(4-fluorophenyl)methyl]-1-piperazinyl]-3-[[(phenylamino)carbonyl]amino]-benzamide], the negative-log IC50 (pIC50) is 5.82. Consider `NC(=O)c1ccc(N2CCN(C(c3ccc(F)cc3)c3ccc(F)cc3)CC2)c(NC(=O)Nc2ccccc2F)c1` [Cpd 4, 4-[4-[bis(4-fluorophenyl)methyl]-1-piperazinyl]-3-[[[(2-fluorophenyl)amino]carbonyl]amino]-benzamide], for which the pIC50 was 5.68. Turning to `NC(=O)c1ccc(N2CCN(C(c3ccccc3)c3ccccc3)CC2)c(NC(=O)Nc2ccc([N+](=O)[O-])cc2)c1` [Cpd 5, 4-[4-(diphenylmethyl)-1-piperazinyl]-3-[[[(4-nitrophenyl)amino]carbonyl]amino]-benzamide], the negative-log IC50 (pIC50) was 5.00. As for `NC(=O)c1ccc(N2CCN(C(c3ccccc3)c3ccccc3)CC2)c(NC(=O)NCc2ccccc2)c1` [Cpd 6, 4-[4-(diphenylmethyl)-1-piperazinyl]-3-[[[(phenylmethyl)amino]carbonyl]amino]-benzamide], the pIC50 is 5.05. As to `Cc1cc(C)cc(NC(=O)Nc2cc(C(N)=O)ccc2N2CCN(C(c3ccccc3)c3ccccc3)CC2)c1` [Cpd 7, 3-[[[(3,5-dimethylphenyl)amino]carbonyl]amino]-4-[4-(diphenylmethyl)-1-piperazinyl]-benzamide], the pIC50 is 5.28. Turning to `NC(=O)c1ccc(N2CCN(C(c3ccccc3)c3ccccc3)CC2)c(NC(=O)Nc2ccccc2)c1` [Cpd 8, 4-[4-(diphenylmethyl)-1-piperazinyl]-3-[[(phenylamino)carbonyl]amino]-benzamide], the negative-log IC50 (pIC50) was 5.92. In the case of `NC(=O)c1ccc(N2CCN(C(c3ccccc3)c3ccccc3)CC2)c(NC(=O)NC2CCCCC2)c1` [Cpd 10, 3-[[(cyclohexylamino)carbonyl]amino]-4-[4-(diphenylmethyl)-1-piperazinyl]-benzamide], the pIC50 is 4.85. Under `C[C@H](NC(=O)Nc1cc(C(N)=O)ccc1N1CCN(C(c2ccccc2)c2ccccc2)CC1)c1ccccc1` [Cpd 11, 4-[4-(diphenylmethyl)-1-piperazinyl]-3-[[[[(1S)-1-phenylethyl]amino]carbonyl]amino]-benzamide] stands 5.08; under `CCCCNC(=O)Nc1cc(C(N)=O)ccc1N1CCN(C(c2ccccc2)c2ccccc2)CC1` [Cpd 12, 3-[[(butylamino)carbonyl]amino]-4-[4-(diphenylmethyl)-1-piperazinyl]-benzamide], 4.84; under `NC(=O)c1ccc(N2CCN(C(c3ccccc3)c3ccccc3)CC2)c(NC(=O)Nc2ccc(F)cc2)c1` [Cpd 13, 4-[4-(diphenylmethyl)-1-piperazinyl]-3-[[[(4-fluorophenyl)amino]carbonyl]amino]-benzamide], 5.89. For `NC(=O)c1ccc(N2CCN(C(c3ccc(F)cc3)c3ccc(F)cc3)CC2)c(NC(=O)Nc2ccc3c(c2)OCO3)c1` [Cpd 14, 3-[[(1,3-benzodioxol-5-ylamino)carbonyl]amino]-4-[4-[bis(4-fluorophenyl)methyl]-1-piperazinyl]-benzamide], the pIC50 was 5.51.

In the case of `Cc1ccc(NC(=O)Nc2cc(C(N)=O)ccc2N2CCN(C(c3ccc(F)cc3)c3ccc(F)cc3)CC2)c(C)c1` [Cpd 15, 4-[4-[bis(4-fluorophenyl)methyl]-1-piperazinyl]-3-[[[(2,4-dimethylphenyl)amino]carbonyl]amino]-benzamide], the pIC50 is 5.32. For `CC(NC(=O)Nc1cc(C(N)=O)ccc1N1CCN(C(c2ccc(F)cc2)c2ccc(F)cc2)CC1)c1ccccc1` (stereo not shown) [Cpd 16, 4-[4-[bis(4-fluorophenyl)methyl]-1-piperazinyl]-3-[[[(1-phenylethyl)amino]carbonyl]amino]-benzamide], the pIC50 was 5.22. Under `COc1ccccc1NC(=O)Nc1cc(C(N)=O)ccc1N1CCN(C(c2ccc(F)cc2)c2ccc(F)cc2)CC1` [Cpd 17, 4-[4-[bis(4-fluorophenyl)methyl]-1-piperazinyl]-3-[[[(2-methoxyphenyl)amino]carbonyl]amino]-benzamide] stands 5.55; under `COc1ccc(NC(=O)Nc2cc(C(N)=O)ccc2N2CCN(C(c3ccc(F)cc3)c3ccc(F)cc3)CC2)c(OC)c1` [Cpd 18, 4-[4-[bis(4-fluorophenyl)methyl]-1-piperazinyl]-3-[[[(2,4-dimethoxyphenyl)amino]carbonyl]amino]-benzamide], 5.34; under `CN(C)c1ccc(NC(=O)Nc2cc(C(N)=O)ccc2N2CCN(C(c3ccc(F)cc3)c3ccc(F)cc3)CC2)cc1` [Cpd 19, 4-[4-[bis(4-fluorophenyl)methyl]-1-piperazinyl]-3-[[[[4-(dimethylamino)phenyl]amino]carbonyl]amino]-benzamide], 5.54.

As for `COc1ccc(NC(=O)Nc2cc(C(N)=O)ccc2N2CCN(C(c3ccc(F)cc3)c3ccc(F)cc3)CC2)cc1` [Cpd 20, 4-[4-[bis(4-fluorophenyl)methyl]-1-piperazinyl]-3-[[[(4-methoxyphenyl)amino]carbonyl]amino]-benzamide], the pIC50 was 5.37.

Consider `NC(=O)c1ccc(N2CCN(C(c3ccc(F)cc3)c3ccc(F)cc3)CC2)c(NC(=S)Nc2ccccc2)c1` [Cpd 22, 4-[4-[bis(4-fluorophenyl)methyl]-1-piperazinyl]-3-[[(phenylamino)thioxomethyl]amino]-benzamide], for which the negative logarithm of the IC50 (pIC50) was 5.92. As to `CN1CCN(C(=O)c2ccc(N3CCN(C(c4ccccc4)c4ccccc4)CC3)c(NC(=O)Nc3ccccc3)c2)CC1` [Cpd 23, N-[2-[4-(diphenylmethyl)-1-piperazinyl]-5-[(4-methyl-1-piperazinyl)carbonyl]phenyl]-N′-phenylurea], the pIC50 was 5.31. `O=C(Nc1ccccc1)Nc1cc(C(=O)N2CCCNCC2)ccc1N1CCN(C(c2ccccc2)c2ccccc2)CC1` [Cpd 24, N-[2-[4-(diphenylmethyl)-1-piperazinyl]-5-[(hexahydro-1H-1,4-diazepin-1-yl)carbonyl]phenyl]-N′-phenylurea]: the pIC50 was 6.06. For `O=C(Nc1cc(C(=O)N2CCCNCC2)ccc1N1CCN(C(c2ccccc2)c2ccccc2)CC1)NC1CCCCC1` [Cpd 25, N-cyclohexyl-N′-[2-[4-(diphenylmethyl)-1-piperazinyl]-5-[(hexahydro-1H-1,4-diazepin-1-yl)carbonyl]-phenyl]urea], the pIC50 was 5.59. For the compound `NCCNC(=O)c1ccc(N2CCN(C(c3ccccc3)c3ccccc3)CC2)c(NC(=O)Nc2ccccc2)c1` [Cpd 26, N-(2-aminoethyl)-4-[4-(diphenylmethyl)-1-piperazinyl]-3-[[(phenylamino)carbonyl]amino]-benzamide], the pIC50 was 5.72. The value for `NCCNC(=O)c1ccc(N2CCN(C(c3ccccc3)c3ccccc3)CC2)c(NC(=O)NC2CCCCC2)c1` [Cpd 27, N-(2-aminoethyl)-3-[[(cyclohexylamino)carbonyl]amino]-4-[4-(diphenylmethyl)-1-piperazinyl]-benzamide] was 5.55.
